Patent publication US11306331B2, “Processes for the production of hydroxycinnamic acids using polypeptides having tyrosine ammonia lyase activity” (CysBio ApS, priority 2014, dated 2022)

How the values were obtained:
[1] = biological target: T1, Flavobacterium johnsoniae FjXAL tyrosine ammonia lyase (Protein GI 146298870), SEQ ID NO: 1, His-tagged (N-terminal tag SEQ ID NO: 11) (Flavobacterium johnsoniae, UniProt A5FKY3); assay: In vitro kinetics of purified His-tagged FjXAL (tyrosine/phenylalanine ammonia lyase activity, absorbance at 315/295 nm); assay type: biochemical
T1 sequence (A5FKY3 1-506): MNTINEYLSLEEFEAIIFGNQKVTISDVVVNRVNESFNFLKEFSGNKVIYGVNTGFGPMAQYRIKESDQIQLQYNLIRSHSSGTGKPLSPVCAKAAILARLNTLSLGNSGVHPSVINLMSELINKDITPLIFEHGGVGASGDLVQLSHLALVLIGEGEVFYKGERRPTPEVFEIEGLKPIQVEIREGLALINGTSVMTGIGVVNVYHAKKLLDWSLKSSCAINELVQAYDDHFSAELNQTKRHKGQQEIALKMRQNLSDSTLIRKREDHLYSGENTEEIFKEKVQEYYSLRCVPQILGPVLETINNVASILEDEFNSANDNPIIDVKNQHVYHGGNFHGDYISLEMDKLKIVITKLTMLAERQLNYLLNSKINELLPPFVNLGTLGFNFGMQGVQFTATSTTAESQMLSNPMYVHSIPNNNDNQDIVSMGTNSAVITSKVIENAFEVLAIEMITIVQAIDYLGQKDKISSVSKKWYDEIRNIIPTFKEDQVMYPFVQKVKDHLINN
Protocol: The tyrosine ammonia lyase activity may for instance be determined in accordance to the following method: Enzymatic assays are performed in 200 μL volumes in wells in a UV transparent 96-well plate, by following the increase in absorbance at 315 nm (pHCA) using spectrophotometry or HPLC with UV detection. The reaction mixtures contain 2 μg of purified protein and are initiated by adding 1 mM tyrosine or 6 mM after equilibration to 30° C. The enzymatic activity is calculated as U/g, where U is defined as μmol substrate converted per minute. Negative controls contain no purified protein. Kinetic constants Km and vmax are determined from assays containing 1.56 μM to 200 μM tyrosine. See also Kyndt et al. (2002).
Four of the enzymes were further purified by His-tag purification as follows. A DNA linker (5′ phosphorylated oligonucleotides CBJP559 and CBJP560, Table 5) was inserted in place of the sequence between the NdeI and BgIII site in plasmid pCDFDuet-1. This would result in the addition of the amino acids MAHHHHHHENLYFQ (SEQ ID NO: 11) to the N-terminal end of the polypeptides. […]
Enzymatic assays were performed in 200 μL volumes in wells in a UV transparent 96-well plate, by following the increase in absorbance at 315 nm (pHCA) or 295 nm (CA). […] The enzymatic activity was calculated as U/g, where U is defined as μmol substrate converted per minute.

[2] = biological target: T2, Rhodobacter sphaeroides RsTAL (Protein GI 126464011), His-tagged (N-terminal tag SEQ ID NO: 11) (Cereibacter sphaeroides, UniProt Q3IWB0); assay: In vitro kinetics of purified His-tagged RsTAL (tyrosine/phenylalanine ammonia lyase activity, absorbance at 315/295 nm)
T2 sequence (Q3IWB0 1-523): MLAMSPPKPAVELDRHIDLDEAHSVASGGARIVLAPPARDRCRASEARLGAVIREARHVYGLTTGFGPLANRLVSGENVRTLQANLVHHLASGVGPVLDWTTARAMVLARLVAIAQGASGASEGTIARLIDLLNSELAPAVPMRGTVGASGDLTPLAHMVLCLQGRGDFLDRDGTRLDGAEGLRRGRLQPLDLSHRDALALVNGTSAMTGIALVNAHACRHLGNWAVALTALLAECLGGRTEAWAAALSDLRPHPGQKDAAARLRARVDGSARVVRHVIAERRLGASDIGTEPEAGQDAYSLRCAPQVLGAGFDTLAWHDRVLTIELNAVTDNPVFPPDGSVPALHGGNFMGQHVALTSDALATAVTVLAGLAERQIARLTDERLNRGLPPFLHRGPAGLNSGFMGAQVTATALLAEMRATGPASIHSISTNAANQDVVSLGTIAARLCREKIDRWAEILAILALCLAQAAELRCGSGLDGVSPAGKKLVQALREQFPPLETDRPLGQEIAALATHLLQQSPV
Protocol: Strains expressing His-tagged versions of the enzymes were grown in LB media overnight at 37° C. and diluted into fresh LB media with 1 mM IPTG and growth was propagated overnight (approximately 18 h) at 30° C. Cells were harvested by centrifugation at 8000 rpm for 8 minutes, and disrupted by shearing into a buffer (50 mM Tris-HCl, 10 mM imidazole, 500 mM NaCl, 10% glycerol, pH 7.5). The homogenate was clarified by centrifugation at 10000 g for 10 min at 4° C., and the supernatant was loaded onto Ni2+-NTA resin column on an Äkta Pure system connected to a F9-C fraction collector (GE). Finally the fractions containing the purified polypeptide was dialyzed overnight against a buffer containing 50 mM Tris-HCl pH 7.5, 150 mM NaCl and 10% glycerol, flash-frozen in liquid nitrogen and stored at −80° C.
Enzymatic assays were performed in 200 μL volumes in wells in a UV transparent 96-well plate, by following the increase in absorbance at 315 nm (pHCA) or 295 nm (CA). The reaction mixtures contained 2 μg of purified protein and were initiated by adding 1 mM tyrosine or 6 mM after equilibration to 30° C. The enzymatic activity was calculated as U/g, where U is defined as μmol substrate converted per minute.

[3] = 30° C, 1.56 μM to 200 μM tyrosine or 193 μM to 25 mM phenylalanine
[4] = ratio of Kcat/Km for Tyr over Phe

Work on N[C@@H](Cc1ccc(O)cc1)C(=O)O [Tyr, tyrosine] yielded a Kcat [1, 3] of 0.0212 s⁻¹, a TAL/PAL [1, 4] of 3000 and a Kcat [2, 3] of 0.173 s⁻¹. It also gave a TAL/PAL [2, 4] of 125.
